Experimental data reported in ChEMBL document CHEMBL1201862, “PubChem BioAssay data set” (2004).
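Values below derive from 48-hour exposures of cells grown in 96-well plates, with endpoints linearly interpolated between the two concentrations bracketing the appropriate inhibition level. GI50 marks 50% less growth.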 The source made the active and inactive calls. Cut-off read from the data, not from the text of the source: active = GI50 up to about 1.1 µM and inactive = higher.

Experiments:
Assay in all cases: inhibition of tumour cell growth, NCI panel, 48 h
M14 = test system: M14
CCRF-CEM = test system: CCRF-CEM
SN12C = test system: SN12C
MDA-MB-435 = test system: MDA-MB-435
SNB-19 = test system: SNB-19
K562 = test system: K562
SF-295 = test system: SF-295
OVCAR-4 = test system: OVCAR-4
BT-549 = test system: BT-549
A498 = test system: A498
CAKI-1 = test system: CAKI-1
KM12 = test system: KM12
NCI-H522 = test system: NCI-H522
786-0 = test system: 786-0
SK-MEL-2 = test system: SK-MEL-2
OVCAR-5 = test system: OVCAR-5
IGROV-1 = test system: IGROV-1
SR = test system: SR

SMILES	GI50 (M14)	GI50 (CCRF-CEM)	GI50 (SN12C)	GI50 (MDA-MB-435)	GI50 (SNB-19)	GI50 (K562)	GI50 (SF-295)	GI50 (OVCAR-4)	GI50 (BT-549)	GI50 (A498)	GI50 (CAKI-1)	GI50 (KM12)	GI50 (NCI-H522)	GI50 (786-0)	GI50 (SK-MEL-2)	GI50 (OVCAR-5)	GI50 (IGROV-1)	GI50 (SR)
COc1ccc(C(SCCO)(c2ccccc2)c2ccc(OC)cc2)cc1	9.31 µM (inactive)	12.6 µM (inactive)	14.5 µM (inactive)	5.65 µM (inactive)	8.26 µM (inactive)	16.7 µM (inactive)	4.36 µM (inactive)	15.8 µM (inactive)	19.5 µM (inactive)	13.9 µM (inactive)	21 µM (inactive)	5.38 µM (inactive)	10.8 µM (inactive)	14.6 µM (inactive)	11.1 µM (inactive)	15.2 µM (inactive)	16.8 µM (inactive)	–
CC(C)(C)OC(=O)CC(NC(=O)OC(C)(C)C)C(=O)NC(C(=O)O)C(O)c1ccccc1 (stereo not given)	> 100 µM (inactive)	51.4 µM (inactive)	–	> 100 µM (inactive)	> 100 µM (inactive)	46.9 µM (inactive)	> 100 µM (inactive)	> 100 µM (inactive)	> 100 µM (inactive)	> 100 µM (inactive)	> 100 µM (inactive)	97.7 µM (inactive)	> 100 µM (inactive)	> 100 µM (inactive)	> 100 µM (inactive)	> 100 µM (inactive)	> 100 µM (inactive)	–
N#CC(C(=O)O)C(c1c(Cl)cccc1Cl)C(C#N)C(=O)O (stereo not given)	> 100 µM (inactive)	–	> 100 µM (inactive)	> 100 µM (inactive)	> 100 µM (inactive)	> 100 µM (inactive)	> 100 µM (inactive)	> 100 µM (inactive)	> 100 µM (inactive)	> 100 µM (inactive)	> 100 µM (inactive)	> 100 µM (inactive)	> 100 µM (inactive)	> 100 µM (inactive)	> 100 µM (inactive)	> 100 µM (inactive)	> 100 µM (inactive)	> 100 µM (inactive)
O=S(=O)(N/N=C1\CC2CCC1C2)c1ccccc1 (stereo not given)	> 100 µM (inactive)	> 100 µM (inactive)	> 100 µM (inactive)	> 100 µM (inactive)	> 100 µM (inactive)	> 100 µM (inactive)	> 100 µM (inactive)	> 100 µM (inactive)	> 100 µM (inactive)	–	> 100 µM (inactive)	> 100 µM (inactive)	> 100 µM (inactive)	> 100 µM (inactive)	> 100 µM (inactive)	> 100 µM (inactive)	> 100 µM (inactive)	> 100 µM (inactive)
O=C1/C(=C\c2cccc(Oc3ccccc3)c2)SC(c2ccccc2)N1c1cc(Cl)ccc1Cl (stereo not given)	30.1 µM (inactive)	0.0356 µM (active)	18.7 µM (inactive)	32.3 µM (inactive)	43.4 µM (inactive)	21.2 µM (inactive)	24.2 µM (inactive)	51.2 µM (inactive)	36.8 µM (inactive)	> 100 µM (inactive)	69.2 µM (inactive)	18.2 µM (inactive)	21 µM (inactive)	27 µM (inactive)	43.5 µM (inactive)	59 µM (inactive)	26.3 µM (inactive)	–
Cc1nnc2nc(-c3ccc(Cl)cc3Cl)cc(-c3ccc(Cl)cc3)n12	> 100 µM (inactive)	> 100 µM (inactive)	> 100 µM (inactive)	> 100 µM (inactive)	> 100 µM (inactive)	50.4 µM (inactive)	91.4 µM (inactive)	23.3 µM (inactive)	> 100 µM (inactive)	–	66.5 µM (inactive)	> 100 µM (inactive)	–	> 100 µM (inactive)	–	> 100 µM (inactive)	–	> 100 µM (inactive)
CCCNC(=O)NNC(=O)c1c[nH]c2nc(C)ccc2c1=O	> 100 µM (inactive)	> 100 µM (inactive)	> 100 µM (inactive)	> 100 µM (inactive)	> 100 µM (inactive)	> 100 µM (inactive)	> 100 µM (inactive)	> 100 µM (inactive)	> 100 µM (inactive)	> 100 µM (inactive)	> 100 µM (inactive)	> 100 µM (inactive)	> 100 µM (inactive)	> 100 µM (inactive)	> 100 µM (inactive)	> 100 µM (inactive)	> 100 µM (inactive)	–
COc1cc(OC)cc(Oc2nc3ccc(C(F)(F)F)cc3nc2-c2ccccc2)c1	–	> 100 µM (inactive)	–	> 100 µM (inactive)	–	> 100 µM (inactive)	> 100 µM (inactive)	> 100 µM (inactive)	> 100 µM (inactive)	> 100 µM (inactive)	> 100 µM (inactive)	> 100 µM (inactive)	> 100 µM (inactive)	> 100 µM (inactive)	–	> 100 µM (inactive)	> 100 µM (inactive)	> 100 µM (inactive)
COc1cc(C/C=C/c2ccccc2)c(OC)cc1O [VIOLASTYRENE]	19.2 µM (inactive)	17.1 µM (inactive)	19.1 µM (inactive)	18.5 µM (inactive)	30.5 µM (inactive)	15.6 µM (inactive)	–	18 µM (inactive)	24.7 µM (inactive)	80.4 µM (inactive)	26.2 µM (inactive)	17 µM (inactive)	20.9 µM (inactive)	13.8 µM (inactive)	23.2 µM (inactive)	24.7 µM (inactive)	18.3 µM (inactive)	–
